The values that follow come from article PMC5916808 (Journal of medicinal chemistry, 2017).

pEC50: −log10 of the molar value. Several values for one entry are separate records, joined by “and”; a condition that tells them apart may be missing. Equal values may be shown once.

For data set [1] the following is noted: cited from earlier work.
For data set [2] the following is noted: ref Jensen, Egebjerg, Bundgaard, unpublished data; cited from earlier work.
The subject of data set [3] is AMPA or kainate receptors. Conditions: cited from earlier work.
A short description of data set [4]: Pharmacokinetics and brain penetration after IP dosing, LC/MS/MS. Format: in vivo, C57Bl/6 mice.
For data set [5], the target named is T1, GluN1/GluN2D NMDA receptors (Rattus norvegicus, UniProt Q62645). In kind it is cell-based.
T1 sequence (Q62645 28-1323, other chains not shown): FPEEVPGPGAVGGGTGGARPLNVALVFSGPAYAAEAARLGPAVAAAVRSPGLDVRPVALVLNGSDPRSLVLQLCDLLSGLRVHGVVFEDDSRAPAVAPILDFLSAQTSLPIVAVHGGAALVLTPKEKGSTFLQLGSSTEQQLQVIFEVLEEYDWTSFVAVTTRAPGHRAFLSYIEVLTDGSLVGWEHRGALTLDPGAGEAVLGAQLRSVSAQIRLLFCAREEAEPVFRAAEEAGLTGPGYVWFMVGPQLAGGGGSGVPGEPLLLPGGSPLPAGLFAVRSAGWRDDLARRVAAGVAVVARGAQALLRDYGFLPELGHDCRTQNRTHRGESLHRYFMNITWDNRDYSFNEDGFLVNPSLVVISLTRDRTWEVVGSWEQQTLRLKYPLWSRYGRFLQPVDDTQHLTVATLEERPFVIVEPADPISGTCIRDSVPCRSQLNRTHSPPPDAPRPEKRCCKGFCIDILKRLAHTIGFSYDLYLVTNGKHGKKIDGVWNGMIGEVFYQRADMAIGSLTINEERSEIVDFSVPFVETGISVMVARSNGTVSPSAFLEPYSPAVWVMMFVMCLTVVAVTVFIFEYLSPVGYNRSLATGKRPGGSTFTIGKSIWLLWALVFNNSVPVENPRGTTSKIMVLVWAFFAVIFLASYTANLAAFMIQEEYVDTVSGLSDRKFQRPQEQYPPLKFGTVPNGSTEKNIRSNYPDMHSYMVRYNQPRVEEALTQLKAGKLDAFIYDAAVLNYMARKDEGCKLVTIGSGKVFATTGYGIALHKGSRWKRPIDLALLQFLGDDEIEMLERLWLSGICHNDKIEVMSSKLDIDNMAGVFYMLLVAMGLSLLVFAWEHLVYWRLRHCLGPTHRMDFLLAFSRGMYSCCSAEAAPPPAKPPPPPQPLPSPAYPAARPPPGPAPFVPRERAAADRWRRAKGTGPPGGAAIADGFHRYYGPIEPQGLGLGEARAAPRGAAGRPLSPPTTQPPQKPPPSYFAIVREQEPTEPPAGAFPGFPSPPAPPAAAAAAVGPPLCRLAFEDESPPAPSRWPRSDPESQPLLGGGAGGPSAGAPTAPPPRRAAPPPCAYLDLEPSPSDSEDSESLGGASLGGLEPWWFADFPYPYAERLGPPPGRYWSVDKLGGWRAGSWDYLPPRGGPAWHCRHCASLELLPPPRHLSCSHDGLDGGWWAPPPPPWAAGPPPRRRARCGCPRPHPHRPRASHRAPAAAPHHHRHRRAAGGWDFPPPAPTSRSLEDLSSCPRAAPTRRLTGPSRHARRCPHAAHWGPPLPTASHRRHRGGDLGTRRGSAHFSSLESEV
Data set [6] deals with GluN1/GluN2B NMDA receptors (Rattus norvegicus, UniProt Q00960). In kind it is cell-based. As to conditions: for fold increase in potency at GluN2B, thioamide compared to amide: 138 vs 2, 142 vs 97.
Sequence of GluN1/GluN2B NMDA receptors (Q00960 27-1482, other chains not shown): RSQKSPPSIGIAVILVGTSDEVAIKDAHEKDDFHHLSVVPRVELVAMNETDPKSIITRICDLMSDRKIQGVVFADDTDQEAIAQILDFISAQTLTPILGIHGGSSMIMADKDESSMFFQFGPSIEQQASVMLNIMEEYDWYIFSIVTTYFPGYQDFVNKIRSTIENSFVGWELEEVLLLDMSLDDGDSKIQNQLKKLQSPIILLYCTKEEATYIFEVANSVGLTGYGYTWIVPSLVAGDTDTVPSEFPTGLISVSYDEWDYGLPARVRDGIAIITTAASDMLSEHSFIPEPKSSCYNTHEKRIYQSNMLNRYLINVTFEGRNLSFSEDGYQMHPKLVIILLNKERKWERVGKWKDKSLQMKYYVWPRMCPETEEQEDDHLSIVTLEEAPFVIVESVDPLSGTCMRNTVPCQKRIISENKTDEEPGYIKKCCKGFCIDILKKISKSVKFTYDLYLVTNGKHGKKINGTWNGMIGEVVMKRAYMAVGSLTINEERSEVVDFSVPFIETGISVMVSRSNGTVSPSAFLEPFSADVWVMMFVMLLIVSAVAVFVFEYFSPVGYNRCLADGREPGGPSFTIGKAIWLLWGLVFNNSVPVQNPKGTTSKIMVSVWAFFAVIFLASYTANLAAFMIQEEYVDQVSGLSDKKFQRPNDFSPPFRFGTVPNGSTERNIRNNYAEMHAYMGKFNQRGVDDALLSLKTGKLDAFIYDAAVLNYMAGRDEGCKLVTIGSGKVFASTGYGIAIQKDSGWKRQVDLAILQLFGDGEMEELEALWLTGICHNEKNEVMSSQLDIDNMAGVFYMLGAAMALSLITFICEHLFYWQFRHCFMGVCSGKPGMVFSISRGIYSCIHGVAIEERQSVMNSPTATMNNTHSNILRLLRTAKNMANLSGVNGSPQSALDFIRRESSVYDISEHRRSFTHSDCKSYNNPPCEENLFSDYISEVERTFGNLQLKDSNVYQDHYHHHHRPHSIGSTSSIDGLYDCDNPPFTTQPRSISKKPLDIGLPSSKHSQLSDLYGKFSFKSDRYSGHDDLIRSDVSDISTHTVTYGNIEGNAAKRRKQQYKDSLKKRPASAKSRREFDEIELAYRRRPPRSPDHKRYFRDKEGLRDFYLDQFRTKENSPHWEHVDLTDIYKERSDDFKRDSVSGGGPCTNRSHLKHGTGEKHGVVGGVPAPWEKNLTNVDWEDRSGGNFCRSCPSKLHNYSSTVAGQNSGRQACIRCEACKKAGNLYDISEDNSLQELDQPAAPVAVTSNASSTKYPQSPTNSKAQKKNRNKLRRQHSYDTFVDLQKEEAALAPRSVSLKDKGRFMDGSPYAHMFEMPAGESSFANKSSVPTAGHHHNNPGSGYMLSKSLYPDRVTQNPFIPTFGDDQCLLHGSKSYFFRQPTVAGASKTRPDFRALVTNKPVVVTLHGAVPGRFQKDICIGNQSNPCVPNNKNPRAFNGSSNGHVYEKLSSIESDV
A further data set addresses GluK2 (Rattus norvegicus, UniProt P42260). The data set is described as follows: Two-electrode voltage clamp, GluK2 homomeric receptors in Xenopus oocytes. As to conditions: 30 μM compound co-applied with 100 μM glutamate and 30 μM glycine, n=9. Format: cell-based.
The target in data set [7] is T2, GluN1/GluN2C NMDA receptors (Rattus norvegicus, UniProt Q00961). In kind it is cell-based.
T2 sequence (Q00961 20-1237, other chains not shown): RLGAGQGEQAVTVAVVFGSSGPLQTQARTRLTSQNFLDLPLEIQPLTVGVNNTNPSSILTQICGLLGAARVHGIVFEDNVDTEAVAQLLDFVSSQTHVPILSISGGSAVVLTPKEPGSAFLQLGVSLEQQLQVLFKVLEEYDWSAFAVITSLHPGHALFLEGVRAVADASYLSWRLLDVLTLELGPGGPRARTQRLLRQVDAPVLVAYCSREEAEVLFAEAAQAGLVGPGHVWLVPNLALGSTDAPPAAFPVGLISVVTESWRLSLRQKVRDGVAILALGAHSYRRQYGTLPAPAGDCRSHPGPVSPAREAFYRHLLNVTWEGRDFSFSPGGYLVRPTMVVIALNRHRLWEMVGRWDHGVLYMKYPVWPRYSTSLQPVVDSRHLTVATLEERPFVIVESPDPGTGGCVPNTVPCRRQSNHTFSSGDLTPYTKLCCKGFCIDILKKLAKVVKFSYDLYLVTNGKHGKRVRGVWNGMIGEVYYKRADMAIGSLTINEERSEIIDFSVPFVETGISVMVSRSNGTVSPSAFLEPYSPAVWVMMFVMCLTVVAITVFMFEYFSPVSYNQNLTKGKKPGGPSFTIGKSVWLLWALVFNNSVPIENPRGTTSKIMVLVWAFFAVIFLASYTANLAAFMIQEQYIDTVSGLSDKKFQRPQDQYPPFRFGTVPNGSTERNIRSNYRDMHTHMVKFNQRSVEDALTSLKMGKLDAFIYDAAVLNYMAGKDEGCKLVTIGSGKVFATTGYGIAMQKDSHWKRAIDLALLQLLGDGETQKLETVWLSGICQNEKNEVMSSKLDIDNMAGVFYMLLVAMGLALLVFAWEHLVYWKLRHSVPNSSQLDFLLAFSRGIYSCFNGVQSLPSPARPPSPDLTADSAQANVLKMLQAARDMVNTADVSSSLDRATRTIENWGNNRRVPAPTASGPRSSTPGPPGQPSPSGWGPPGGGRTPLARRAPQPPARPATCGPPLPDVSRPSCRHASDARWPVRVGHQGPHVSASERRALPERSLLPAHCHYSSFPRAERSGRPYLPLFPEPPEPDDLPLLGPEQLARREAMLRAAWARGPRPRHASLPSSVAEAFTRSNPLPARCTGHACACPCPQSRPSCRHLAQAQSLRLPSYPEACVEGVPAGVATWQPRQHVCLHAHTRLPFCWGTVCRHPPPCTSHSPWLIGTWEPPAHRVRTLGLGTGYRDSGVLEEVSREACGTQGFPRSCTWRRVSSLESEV
In data set [8] the target is T1, GluN1/GluN2D NMDA receptors. As to conditions: 30 μM; previously published data; cited from earlier work.
Data set [9] addresses T2, GluN1/GluN2C NMDA receptors. As to conditions: 30 μM; previously published data; cited from earlier work.
The subject of data set [10] is GluN1/GluN2A, GluN1/GluN2B, GluN1/GluN2C, and GluN1/GluN2D NMDA receptors. The data set is described as follows: Two-electrode voltage clamp, activity profile across GluN2 subunits. Format: cell-based, rat. As to conditions: potentiation of response to maximal glutamate and glycine.
A short description of data set [11]: Solubility of test compound in oocyte recording solution. As to conditions: aqueous buffer. Format: physicochemical.
Data set [12] concerns the target GluN1/GluN2D NMDA receptors (Rattus norvegicus, UniProt P35439+Q62645). In kind it is cell-based.
A further data set concerns GluN1/GluN2B receptors. Conditions: noncompetitive inhibitor; cited from earlier work.
[13] abbreviates: 30 μM co-applied with either 30 μM glutamate or 10 μM glycine.
[14] abbreviates: percentage of the initial glutamate (100 μM) and glycine (30 μM) current.

Sequence of GluN1/GluN2D NMDA receptors (Rattus norvegicus, UniProt P35439+Q62645) (Q62645 28-1323, other chains not shown): as the sequence (Q62645 28-1323, other chains not shown) above
Sequence of GluK2 (P42260 32-908): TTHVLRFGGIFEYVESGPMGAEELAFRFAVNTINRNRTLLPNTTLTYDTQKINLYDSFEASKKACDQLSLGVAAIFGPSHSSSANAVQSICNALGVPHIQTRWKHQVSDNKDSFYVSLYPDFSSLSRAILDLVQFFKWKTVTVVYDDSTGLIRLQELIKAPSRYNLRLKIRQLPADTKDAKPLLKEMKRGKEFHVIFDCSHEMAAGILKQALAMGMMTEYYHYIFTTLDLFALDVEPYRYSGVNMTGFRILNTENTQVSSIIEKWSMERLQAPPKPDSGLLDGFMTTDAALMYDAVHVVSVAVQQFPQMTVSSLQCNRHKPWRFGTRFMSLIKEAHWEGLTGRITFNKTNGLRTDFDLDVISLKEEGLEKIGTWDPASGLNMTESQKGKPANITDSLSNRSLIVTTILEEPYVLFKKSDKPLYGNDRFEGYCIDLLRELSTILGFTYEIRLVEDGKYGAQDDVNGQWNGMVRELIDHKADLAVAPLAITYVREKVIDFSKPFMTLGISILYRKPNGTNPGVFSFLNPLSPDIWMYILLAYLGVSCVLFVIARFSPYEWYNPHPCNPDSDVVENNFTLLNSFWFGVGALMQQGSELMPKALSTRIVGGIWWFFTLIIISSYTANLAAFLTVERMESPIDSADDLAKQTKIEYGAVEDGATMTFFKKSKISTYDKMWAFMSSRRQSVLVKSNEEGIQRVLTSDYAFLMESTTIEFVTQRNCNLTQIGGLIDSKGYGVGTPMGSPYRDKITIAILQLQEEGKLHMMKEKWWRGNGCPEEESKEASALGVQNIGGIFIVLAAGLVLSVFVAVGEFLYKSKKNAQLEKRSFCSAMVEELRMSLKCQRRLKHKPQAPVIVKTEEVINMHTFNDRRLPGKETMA

As to `COc1ccc(OCC2c3cc(OC)c(OC)cc3CCN2C(=O)c2cccc(Cl)c2)cc1` (stereo not shown) [CIQ], the brain penetration result in [1] is listed as “brain penetrant”. Besides, the protein binding result in data set [2] was “high protein binding”. Moreover, the “effect on AMPA or kainate receptors” value in data set [3] is reported as “no effect on AMPA or kainate receptors”.

Regarding `COc1ccc(OCC2c3ccc(OC(C)C)cc3CCN2C(=O)c2cccc(Cl)c2)cc1` (stereo not shown) [Compound 2, (3-Chlorophenyl)(6-isopropoxy-1-((4-methoxyphenoxy)methyl)-3,4-dihydroisoquinolin-2(1H)-yl)methanone], the brain concentration in [4] (10 mg/kg IP, at 15 and 30 min) is listed as 303 ng/mL. Also, in data set [4] (10 mg/kg IP, at 2 hours, n=3 mice), the peak plasma concentration was 789 ng/mL and 1.7 μM. Besides, the behavioral observations post-dosing result in [4] (10 mg/kg i.p.) is “No behavioral abnormalities were observed”. Further, in [4] (C57Bl/6, mouse, brain, intraperitoneal, 10 mg/kg), the concentration at 4 h was found to be 169 ng/mL. The time of peak concentration (Tmax) in data set [4] (C57Bl/6, mouse, plasma, ip, 10 mg/kg) was found to be 2 h. In addition, the “agonist activity at GluN1/GluN2D” value in data set [5] (setting [13]) is listed as “no agonist activity”. Also, in [6] (setting [13]), the “agonist activity at GluN1/GluN2B” value is “no agonist activity”. In addition, at GluK2, the “response as % of the control response to glutamate alone, GluK2” value was 96+9%. Moreover, in data set [7] (setting [13]), the “agonist activity at GluN1/GluN2C” value is on record as “no agonist activity”.

For `COc1ccc(OCC2c3ccc(OC)cc3CCN2C(=O)c2cccc(Cl)c2)cc1` (stereo not shown) [Compound 86], the “I30μM / Icontrol (mean ± SEM, %) GluN2D” value in [8] is listed as 215 ± 19%. Besides, the “I30μM / Icontrol (mean ± SEM, %) GluN2C” value in data set [9] is recorded as 213 ± 13%.

For `CCOc1ccc(OCC2c3ccc(OC(C)C)cc3CCN2C(=O)c2ccccc2)cc1` (stereo not shown) [Compound 95, (1-((4-Ethoxyphenoxy)methyl)-6-isopropoxy-3,4-dihydroisoquinolin-2(1H)-yl)(phenyl)methanone], the “activity / subunit selectivity in words” value in data set [10] was “inactive at all subunits”.

As for `CCOc1ccc(OCC2c3ccc(OC(C)C)cc3CCN2C(=O)c2cccc(F)c2)cc1` (stereo not shown) [Compound 97, (1-((4-Ethoxyphenoxy)methyl)-6-isopropoxy-3,4-dihydroisoquinolin-2(1H)-yl)(3-fluorophenyl)methanone], the “activity / subunit selectivity in words” value in data set [10] is “active at only GluN2B”.

The compound `CCOc1ccc(OCC2c3ccc(OC(C)C)cc3CCN2C(=O)c2cccc(-c3ccccc3)c2)cc1` (stereo not shown) [Compound 99, Biphenyl-3-yl(1-((4-ethoxyphenoxy)methyl)-6-isopropoxy-3,4-dihydroisoquinolin-2(1H)-yl)methanone] showed a solubility in data set [11] of under 30 µM. Besides, the “activity / subunit selectivity in words” value in data set [10] was “inactive”.

For `CCOc1ccc(OCC2c3ccc(OC(C)C)cc3CCN2C(=O)c2cccc(C)c2)cc1` (stereo not shown) [Compound 100, (1-((4-Ethoxyphenoxy)methyl)-6-isopropoxy-3,4-dihydroisoquinolin-2(1H)-yl)(m-tolyl)methanone], the “activity / subunit selectivity in words” value in data set [10] is “inactive”.

Regarding `CCOc1ccc(OCC2c3ccc(OC(C)C)cc3CCN2C(=O)c2cccc(OC)c2)cc1` (stereo not shown) [Compound 101, (1-((4-Ethoxyphenoxy)methyl)-6-isopropoxy-3,4-dihydroisoquinolin-2(1H)-yl)(3-methoxyphenyl)methanone], the “activity / subunit selectivity in words” value in [10] was “inactive”.

For `CCOc1ccc(OCC2c3ccc(OC(C)C)cc3CCN2C(=O)c2ccccc2F)cc1` (stereo not shown) [Compound 102, (1-((4-Ethoxyphenoxy)methyl)-6-isopropoxy-3,4-dihydroisoquinolin-2(1H)-yl)(2-fluorophenyl)methanone], in data set [10], the “activity / subunit selectivity in words” value is reported as “complete loss of activity”.

Regarding `CCOc1ccc(OCC2c3ccc(OC(C)C)cc3CCN2C(=O)c2ccccc2Cl)cc1` (stereo not shown) [Compound 103, (2-Chlorophenyl)(1-((4-ethoxyphenoxy)methyl)-6-isopropoxy-3,4-dihydroisoquinolin-2(1H)-yl)methanone], in data set [10], the “activity / subunit selectivity in words” value is “complete loss of activity”.

`CCOc1ccc(OCC2c3ccc(OC(C)C)cc3CCN2C(=O)c2ccc(F)cc2)cc1` (stereo not shown) [Compound 104, (1-((4-Ethoxyphenoxy)methyl)-6-isopropoxy-3,4-dihydroisoquinolin-2(1H)-yl)(4-fluorophenyl)methanone]: the “activity / subunit selectivity in words” value in [10] is “complete loss of activity”.

For the compound `CCOc1ccc(OCC2c3ccc(OC(C)C)cc3CCN2C(=O)c2ccc(Cl)cc2)cc1` (stereo not shown) [Compound 105, (4-Chlorophenyl)(1-((4-ethoxyphenoxy)methyl)-6-isopropoxy-3,4-dihydroisoquinolin-2(1H)-yl)methanone], in [10], the “activity / subunit selectivity in words” value was “complete loss of activity”.

For `CCOc1ccc(OCC2c3ccc(OC(C)C)cc3CCN2C(=O)c2ccc(F)c(F)c2)cc1` (stereo not shown) [Compound 106, (3,4-Difluorophenyl)(1-((4-ethoxyphenoxy)methyl)-6-isopropoxy-3,4-dihydroisoquinolin-2(1H)-yl)methanone], the “activity / subunit selectivity in words” value in [10] is recorded as “active”.

In [11], `CCOc1ccc(OCC2c3ccc(OC(C)C)cc3CCN2C(=O)c2ccc(Cl)c(Cl)c2)cc1` (stereo not shown) [Compound 107, (3,4-Dichlorophenyl)(1-((4-ethoxyphenoxy)methyl)-6-isopropoxy-3,4-dihydroisoquinolin-2(1H)-yl)methanone] came in with a solubility of under 10 µM. In addition, in data set [10], the “activity / subunit selectivity in words” value is recorded as “active”.

Regarding `CCOc1ccc(OCC2c3ccc(OC(C)C)cc3CCN2C(=O)c2ccc(F)c(Cl)c2)cc1` (stereo not shown) [Compound 108, (3-Chloro-4-fluorophenyl)(1-((4-ethoxyphenoxy)methyl)-6-isopropoxy-3,4-dihydroisoquinolin-2(1H)-yl)methanone], in data set [10], the “activity / subunit selectivity in words” value is “active”.

Regarding `CCOc1ccc(OCC2c3ccc(OC(C)C)cc3CCN2C(=O)c2cc(Cl)cc(Cl)c2)cc1` (stereo not shown) [Compound 109], the solubility in [11] is under 30 µM.

Take `COc1ccccc1OCC1c2ccc(OC(C)C)cc2CCN1C(=O)c1cccc(Cl)c1` (stereo not shown) [Compound 111, (3-Chlorophenyl)(6-isopropoxy-1-((2-methoxyphenoxy)methyl)-3,4-dihydroisoquinolin-2(1H)-yl)methanone]: the “activity / subunit selectivity in words” value in [10] was “all activity was lost”.

With `CC(C)Oc1ccc(OCC2c3ccc(OC(C)C)cc3CCN2C(=O)c2cccc(Cl)c2)cc1` (stereo not shown) [Compound 113, (3-Chlorophenyl)(6-isopropoxy-1-((4-isopropoxyphenoxy)methyl)-3,4-dihydroisoquinolin-2(1H)-yl)methanone], the “activity / subunit selectivity in words” value in data set [10] is listed as “moderately GluN2B-selective”.

Take `COc1ccc(OCC2c3ccc(OC(C)C)cc3CCN2C(=O)c2cccc(F)c2)cc1` (stereo not shown) [Compound 114, (3-Fluorophenyl)(6-isopropoxy-1-((4-methoxyphenoxy)methyl)-3,4-dihydroisoquinolin-2(1H)-yl)methanone]: the negative-log EC50 (pEC50) in data set [12] was 4.96. For the same compound, in data set [5] (setting [14]), the “fitted maximum response GluN2D” value was 493%. The “fitted maximum response GluN2B” value in data set [6] (setting [14]) turned out to be 391%.

`COc1ccc(OCC2c3ccc(OC(C)C)cc3CCN2C(=S)c2cccc(Cl)c2)cc1` (stereo not shown) [Compound 138, (3-Chlorophenyl)(6-isopropoxy-1-((4-methoxyphenoxy)methyl)-3,4-dihydroisoquinolin-2(1H)-yl)methanethione]: the “fold increase in potency at GluN2D, thioamide compared to amide” value in data set [5] (138 vs 2) is reported as about 10 fold. For the same compound, the “fold increase in potency at GluN2B, thioamide compared to amide” value in [6] is about 10 fold. For the same compound, the “fold increase in potency at GluN2C, thioamide compared to amide” value in [7] (138 vs 2) was about 4 fold.

For the compound `CCOc1ccc(OCC2c3ccc(OC(C)C)cc3CCN2C(=S)c2cccc(F)c2)cc1` (stereo not shown) [Compound 142, (1-((4-Ethoxyphenoxy)methyl)-6-isopropoxy-3,4-dihydroisoquinolin-2(1H)-yl)(3-fluorophenyl)methanethione], the “fold increase in potency at GluN2B, thioamide compared to amide” value in [6] is listed as 13 fold.

For `CCOc1ccc(OC[C@H]2c3ccc(OC(C)C)cc3CCN2C(=S)c2cccc(F)c2)cc1` [R-(+)-142, (R)-(1-((4-Ethoxyphenoxy)methyl)-6-isopropoxy-3,4-dihydroisoquinolin-2(1H)-yl)(3-fluorophenyl)methanethione], the “activity / subunit selectivity in words” value in data set [10] is “no detectable potentiation of any NMDA receptor subunit combinations”.

Regarding `CC(C(O)c1ccc(O)cc1)N1CCC(Cc2ccccc2)CC1` (stereo not shown) [ifenprodil], in the data set on GluN1/GluN2B receptors, the “fold more potent at GluN2B-containing receptors compared to GluN2A, GluN2C, or GluN2D” value is on record as over 100 fold.
